Measured values reported in ChEMBL document CHEMBL1201862, “PubChem BioAssay data set” (2004).
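These data come from cells grown in 96-well plates and exposed to compound for 48 hours at five concentrations. Abbreviation: GI50, concentration required for 50% inhibition of growth.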 The source made the active and inactive calls. Cut-off read from the data, not from the text of the source: active = GI50 up to about 1.1 µM and inactive = higher.

How the values were obtained:
Assay in all cases: NCI-60 cell line screen, 48 h
[1] = system: OVCAR-8
[2] = system: NCI/ADR-RES
[3] = system: NCI-H23
[4] = system: ACHN
[5] = system: RPMI-8226
[6] = system: Malme-3M
[7] = system: EKVX
[8] = system: RXF 393
[9] = system: UACC-62
[10] = system: HL-60
[11] = system: K562
[12] = system: MCF7
[13] = system: SR
[14] = system: A498
[15] = system: SNB-75
[16] = system: HT-29
[17] = system: MDA-MB-231
[18] = system: SF-295
[19] = system: Hs-578T
[20] = system: UACC-257

SMILES | GI50 [1] | GI50 [2] | GI50 [3] | GI50 [4] | GI50 [5] | GI50 [6] | GI50 [7] | GI50 [8] | GI50 [9] | GI50 [10] | GI50 [11] | GI50 [12] | GI50 [13] | GI50 [14] | GI50 [15] | GI50 [16] | GI50 [17] | GI50 [18] | GI50 [19] | GI50 [20]
Cc1ccc(/N=N/c2ccc(O)c(CN(C)C)c2)cc1 | 21.4 µM (inactive) | 22.6 µM (inactive) | 36.1 µM (inactive) | 17.3 µM (inactive) | 17.8 µM (inactive) | 16.7 µM (inactive) | 22.6 µM (inactive) | 4.66 µM (inactive) | 20.3 µM (inactive) | 18.1 µM (inactive) | 20 µM (inactive) | 24.2 µM (inactive) | 24.8 µM (inactive) | 19.1 µM (inactive) | 21.6 µM (inactive) | 17.2 µM (inactive) | 20.6 µM (inactive) | 18.1 µM (inactive) | 18.5 µM (inactive) | 17.8 µM (inactive)
COc1ccc2c(c1)/C(=C\c1c(Cl)n(-c3ccccc3)c3ccccc13)C(=O)N2 | 5.77 µM (inactive) | 2.49 µM (inactive) | 6.01 µM (inactive) | 9.18 µM (inactive) | 1.38 µM (inactive) | 2.83 µM (inactive) | 5.86 µM (inactive) | 2.45 µM (inactive) | 5.89 µM (inactive) | 2.72 µM (inactive) | 2.19 µM (inactive) | 3.45 µM (inactive) | 2.59 µM (inactive) | 5.27 µM (inactive) | 6.59 µM (inactive) | 3.48 µM (inactive) | 13.4 µM (inactive) | 3.91 µM (inactive) | 0.479 µM (active) | 8.97 µM (inactive)
O=C1C(N2CCOCC2)=C(Cl)C(=O)c2ncccc21 | 2.61 µM (inactive) | 8.49 µM (inactive) | 1.6 µM (inactive) | 1.85 µM (inactive) | 1.56 µM (inactive) | 1.89 µM (inactive) | > 10 µM (inactive) | 1.55 µM (inactive) | 2.33 µM (inactive) | 0.212 µM (active) | 1.39 µM (inactive) | 1.81 µM (inactive) | 0.778 µM (active) | 8.32 µM (inactive) | > 10 µM (inactive) | > 7.89 µM (inactive) | 2.49 µM (inactive) | > 10 µM (inactive) | 3.99 µM (inactive) | 1.73 µM (inactive)
COc1ccc(C2CCc3c(cnc4nc(N)nc(N)c34)C2)cc1 (stereo not drawn) | 5.4 µM (inactive) | > 100 µM (inactive) |  | 8.28 µM (inactive) | > 100 µM (inactive) | 18.9 µM (inactive) | 73.6 µM (inactive) | 16.8 µM (inactive) | 3.35 µM (inactive) | 6.28 µM (inactive) | 0.83 µM (active) | 15.8 µM (inactive) | 8 µM (inactive) | 38.4 µM (inactive) | 10.3 µM (inactive) | 4.69 µM (inactive) | 40.5 µM (inactive) | 7.26 µM (inactive) | 40.8 µM (inactive) | > 100 µM (inactive)
OC[C@H]1N[C@H](CO)[C@@H](O)[C@H]1O | > 100 µM (inactive) | > 100 µM (inactive) | > 100 µM (inactive) | > 100 µM (inactive) | > 100 µM (inactive) | > 100 µM (inactive) | > 100 µM (inactive) | > 100 µM (inactive) | > 100 µM (inactive) | > 100 µM (inactive) | > 100 µM (inactive) | > 100 µM (inactive) | > 100 µM (inactive) | > 100 µM (inactive) | > 100 µM (inactive) | > 100 µM (inactive) | > 100 µM (inactive) | > 100 µM (inactive) | > 100 µM (inactive) | > 100 µM (inactive)
CCO/N=C\c1ccc2oc(-c3ccccc3)cc(=O)c2c1 | 0.465 µM (active) | 0.0501 µM (active) | 0.476 µM (active) | 1.51 µM (inactive) | 0.215 µM (active) | 0.184 µM (active) | 3.03 µM (inactive) | 0.261 µM (active) | 0.194 µM (active) | 0.135 µM (active) | 0.034 µM (active) | 0.31 µM (active) | < 0.0135 µM (active) | 0.312 µM (active) | 0.219 µM (active) | 0.0521 µM (active) | 0.557 µM (active) | 0.191 µM (active) | 0.402 µM (active) | 18.3 µM (inactive)
CC(=O)OCC1OC(O[C@@H]2C[C@H]3C(C)(C)[C@H](OC(C)=O)CC[C@]3(C)[C@H]3CC[C@@]45C[C@H](O)C[C@H](C)[C@@H]4CC=C5[C@@]32C)C(O)C(O)C1O (stereo partly drawn) | 4.83 µM (inactive) | 16 µM (inactive) | 4.56 µM (inactive) | 6.05 µM (inactive) | 2.42 µM (inactive) | 6.92 µM (inactive) | 7.69 µM (inactive) | 2.11 µM (inactive) | 4.12 µM (inactive) | 1.84 µM (inactive) | 2.61 µM (inactive) | 4.04 µM (inactive) | 2.07 µM (inactive) | 6.67 µM (inactive) | 3.16 µM (inactive) | 1.91 µM (inactive) | 2.39 µM (inactive) | 3.66 µM (inactive) | 4.6 µM (inactive) | 4.72 µM (inactive)
COc1ccc(C(SCC(N)C(=O)O)(c2ccc(OC)cc2)c2ccc(OC)cc2)cc1 (stereo not drawn) | 12.4 µM (inactive) | 10.6 µM (inactive) | 12.4 µM (inactive) | 12 µM (inactive) | 15.9 µM (inactive) | 10.8 µM (inactive) | 13.7 µM (inactive) | 8.47 µM (inactive) | 10.7 µM (inactive) | 14 µM (inactive) | 10 µM (inactive) | 8.63 µM (inactive) | 6.27 µM (inactive) | 14.7 µM (inactive) | 11.3 µM (inactive) | 10.6 µM (inactive) | 13.2 µM (inactive) | 11.8 µM (inactive) | 12.2 µM (inactive) | 11.9 µM (inactive)
CCc1nc2ccc(NCCN(C)C)c3c(=O)c4ccccc4n1c23 | 0.515 µM (active) | 0.431 µM (active) | 1.16 µM (inactive) | 0.417 µM (active) | 0.752 µM (active) | 1.61 µM (inactive) | 1.17 µM (inactive) | 1.67 µM (inactive) | 2.14 µM (inactive) | 1.75 µM (inactive) | 0.468 µM (active) | 2.11 µM (inactive) | 0.193 µM (active) | 2.54 µM (inactive) | 3 µM (inactive) | 0.489 µM (active) | 0.135 µM (active) | 0.741 µM (active) | 1.78 µM (inactive) | 2.48 µM (inactive)
Cc1ccc(O)c(-c2csc(NCN3CCN(CNc4nc(-c5cc(C)ccc5O)cs4)CC3)n2)c1 | > 100 µM (inactive) | > 100 µM (inactive) | > 100 µM (inactive) | > 100 µM (inactive) | 25.2 µM (inactive) | > 100 µM (inactive) | > 100 µM (inactive) | > 100 µM (inactive) | > 100 µM (inactive) | > 100 µM (inactive) | > 100 µM (inactive) | > 100 µM (inactive) | > 100 µM (inactive) | > 100 µM (inactive) | > 100 µM (inactive) | > 100 µM (inactive) | > 100 µM (inactive) | > 100 µM (inactive) | > 100 µM (inactive) | > 100 µM (inactive)
CCCN(C(=O)c1ccccc1)C(C#N)c1ccc(C(C#N)N(CCC)C(=O)c2ccccc2)cc1 (stereo not drawn) | 55.3 µM (inactive) | 38.5 µM (inactive) | > 100 µM (inactive) | 84.1 µM (inactive) | > 100 µM (inactive) | > 100 µM (inactive) | 58.3 µM (inactive) | 35.6 µM (inactive) | 45 µM (inactive) | > 100 µM (inactive) | > 100 µM (inactive) | > 100 µM (inactive) | > 100 µM (inactive) | 37.1 µM (inactive) | 18.4 µM (inactive) | 21.6 µM (inactive) | 66.1 µM (inactive) | 42.4 µM (inactive) | 24.9 µM (inactive) | > 100 µM (inactive)
O=C1NC(=S)N/C1=C/c1c(-c2ccccc2)[nH]c2ccccc12 | 14.4 µM (inactive) | 18.6 µM (inactive) | 14.1 µM (inactive) | 17.4 µM (inactive) | 8.73 µM (inactive) | 13.5 µM (inactive) | 14.5 µM (inactive) | 15.3 µM (inactive) | 11.7 µM (inactive) | 7.31 µM (inactive) | 10.1 µM (inactive) | 15.2 µM (inactive) | 6.32 µM (inactive) | 11.4 µM (inactive) | 15.3 µM (inactive) | 16.3 µM (inactive) | 13.7 µM (inactive) | 12.8 µM (inactive) | 16.6 µM (inactive) | 15.6 µM (inactive)
COc1ccc(C(C)NNC(=O)c2ccncc2)c(OC)c1 (stereo not drawn) | > 100 µM (inactive) | > 100 µM (inactive) | > 100 µM (inactive) | > 100 µM (inactive) | > 100 µM (inactive) | > 100 µM (inactive) | > 100 µM (inactive) | > 100 µM (inactive) | > 100 µM (inactive) | > 100 µM (inactive) | 93.1 µM (inactive) | > 100 µM (inactive) | > 100 µM (inactive) | > 100 µM (inactive) | > 100 µM (inactive) | > 100 µM (inactive) | > 100 µM (inactive) | > 100 µM (inactive) | > 100 µM (inactive) | > 100 µM (inactive)
Oc1ccc2c(c1)CCc1c-2n(CCN2CCOCC2)c2ccc(O)cc12 | 20.2 µM (inactive) | 21 µM (inactive) | 27.7 µM (inactive) | 16.1 µM (inactive) | 29.1 µM (inactive) | 25.3 µM (inactive) | 38.8 µM (inactive) | 30.5 µM (inactive) | 20.6 µM (inactive) | 55.6 µM (inactive) | 41.6 µM (inactive) | 23.5 µM (inactive) | > 100 µM (inactive) | 14.9 µM (inactive) | 16.8 µM (inactive) |  | 49.7 µM (inactive) | 47.2 µM (inactive) | 32.8 µM (inactive) | 37.2 µM (inactive)
